Results published in patent publication US12492188B2, “1H-benzo[D]imidazole derivatives as TLR9 inhibitors for the treatment of fibrosis” (BRISTOL-MYERS SQUIBB COMPANY, priority 2020, dated 2025).
Like-named read-outs stand apart in the source and are kept apart here.

Key:
Format in all cases: cell-based
human TLR7 = target: T1, human TLR7 (Homo sapiens, UniProt Q9NYK1); assay: TLR7 inhibition reporter assay (HEK-Blue cells, secreted embryonic alkaline phosphatase reporter); conditions: HEK-Blue cells overexpressing human TLR7, stimulated with gardiquimod 7.5 μM; read-out: TLR 7 IC50
T1 construct: host or cells: HEK-Blue cells (HEK293-derived reporter line)
T1 sequence (Q9NYK1 27-1049): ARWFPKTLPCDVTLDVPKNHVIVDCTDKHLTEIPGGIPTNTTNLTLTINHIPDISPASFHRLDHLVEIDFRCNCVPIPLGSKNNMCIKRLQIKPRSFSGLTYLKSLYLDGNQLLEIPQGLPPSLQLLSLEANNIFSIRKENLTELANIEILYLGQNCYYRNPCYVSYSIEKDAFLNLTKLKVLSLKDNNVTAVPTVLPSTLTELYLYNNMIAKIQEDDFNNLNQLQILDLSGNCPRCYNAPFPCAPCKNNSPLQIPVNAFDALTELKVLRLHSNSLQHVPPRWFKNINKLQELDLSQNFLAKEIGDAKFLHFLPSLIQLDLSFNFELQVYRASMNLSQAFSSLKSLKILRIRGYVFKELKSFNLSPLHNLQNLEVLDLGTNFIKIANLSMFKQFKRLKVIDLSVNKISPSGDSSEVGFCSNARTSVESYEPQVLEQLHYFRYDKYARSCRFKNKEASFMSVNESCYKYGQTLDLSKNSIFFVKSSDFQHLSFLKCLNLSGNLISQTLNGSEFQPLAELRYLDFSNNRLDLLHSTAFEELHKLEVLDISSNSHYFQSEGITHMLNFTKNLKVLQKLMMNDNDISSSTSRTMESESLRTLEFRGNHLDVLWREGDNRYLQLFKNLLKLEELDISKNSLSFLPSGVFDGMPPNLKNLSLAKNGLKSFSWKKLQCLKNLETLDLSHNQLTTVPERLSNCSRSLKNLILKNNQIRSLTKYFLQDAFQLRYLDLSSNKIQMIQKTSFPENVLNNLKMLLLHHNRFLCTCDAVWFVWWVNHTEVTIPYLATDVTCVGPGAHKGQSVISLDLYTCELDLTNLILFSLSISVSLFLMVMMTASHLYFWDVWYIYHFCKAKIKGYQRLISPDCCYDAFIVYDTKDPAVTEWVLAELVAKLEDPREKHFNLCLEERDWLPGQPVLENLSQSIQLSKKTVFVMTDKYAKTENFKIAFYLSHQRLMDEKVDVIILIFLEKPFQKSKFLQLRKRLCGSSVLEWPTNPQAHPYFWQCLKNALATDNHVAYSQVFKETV
How it was run: (§1)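 Read-out is SEAP colour from HEK-Blue Detection medium after 22 h at 37 °C, converted to percent inhibition between agonist-plus-DMSO and reference-inhibitor wells. Receptor-overexpressing HEK-Blue cells received compound over 0.05 nM–50 μM for 30 min before agonist: gardiquimod 7.5 μM for TLR7, R848 15.9 μM for TLR8, ODN2006 5 nM for TLR9.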

human TLR8 = target: T2, human TLR8 (Homo sapiens, UniProt Q9NR97); assay: TLR8 inhibition reporter assay (HEK-Blue cells, secreted embryonic alkaline phosphatase reporter); conditions: HEK-Blue cells overexpressing human TLR8, stimulated with R848 15.9 μM; read-out: TLR 8 IC50
T2 construct: host or cells: HEK-Blue cells (HEK293-derived reporter line)
T2 sequence (Q9NR97 27-1041): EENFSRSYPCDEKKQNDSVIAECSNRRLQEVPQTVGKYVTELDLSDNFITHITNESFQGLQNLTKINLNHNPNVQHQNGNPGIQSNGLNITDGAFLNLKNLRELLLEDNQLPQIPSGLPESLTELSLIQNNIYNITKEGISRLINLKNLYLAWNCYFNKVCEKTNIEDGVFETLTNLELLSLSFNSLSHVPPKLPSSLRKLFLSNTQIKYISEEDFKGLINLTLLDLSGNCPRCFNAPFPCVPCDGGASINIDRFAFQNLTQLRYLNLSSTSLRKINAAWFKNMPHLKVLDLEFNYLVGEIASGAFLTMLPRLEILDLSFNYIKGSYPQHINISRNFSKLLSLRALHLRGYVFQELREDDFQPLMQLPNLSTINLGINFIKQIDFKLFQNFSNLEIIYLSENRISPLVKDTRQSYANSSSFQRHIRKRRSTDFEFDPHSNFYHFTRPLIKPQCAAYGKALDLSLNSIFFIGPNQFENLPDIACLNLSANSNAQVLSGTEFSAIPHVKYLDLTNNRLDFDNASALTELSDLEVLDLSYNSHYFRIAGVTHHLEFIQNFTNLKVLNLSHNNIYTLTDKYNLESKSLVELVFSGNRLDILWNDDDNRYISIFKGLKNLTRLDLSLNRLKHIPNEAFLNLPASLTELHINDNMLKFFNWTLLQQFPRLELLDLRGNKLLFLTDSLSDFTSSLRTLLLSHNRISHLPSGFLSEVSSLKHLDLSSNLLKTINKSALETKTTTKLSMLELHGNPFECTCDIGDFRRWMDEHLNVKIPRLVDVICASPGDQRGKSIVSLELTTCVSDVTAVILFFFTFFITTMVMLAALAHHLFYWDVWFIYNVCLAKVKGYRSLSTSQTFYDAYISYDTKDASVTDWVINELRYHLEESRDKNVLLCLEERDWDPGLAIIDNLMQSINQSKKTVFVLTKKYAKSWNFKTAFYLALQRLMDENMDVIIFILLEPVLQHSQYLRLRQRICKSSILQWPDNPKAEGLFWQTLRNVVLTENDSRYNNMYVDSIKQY
How it was run: as §1

human TLR9 = target: T3, human TLR9 (Homo sapiens, UniProt Q9NR96); assay: TLR9 inhibition reporter assay (HEK-Blue cells, secreted embryonic alkaline phosphatase reporter)
T3 construct: host or cells: HEK-Blue cells (HEK293-derived reporter line)
T3 sequence (Q9NR96 26-1032): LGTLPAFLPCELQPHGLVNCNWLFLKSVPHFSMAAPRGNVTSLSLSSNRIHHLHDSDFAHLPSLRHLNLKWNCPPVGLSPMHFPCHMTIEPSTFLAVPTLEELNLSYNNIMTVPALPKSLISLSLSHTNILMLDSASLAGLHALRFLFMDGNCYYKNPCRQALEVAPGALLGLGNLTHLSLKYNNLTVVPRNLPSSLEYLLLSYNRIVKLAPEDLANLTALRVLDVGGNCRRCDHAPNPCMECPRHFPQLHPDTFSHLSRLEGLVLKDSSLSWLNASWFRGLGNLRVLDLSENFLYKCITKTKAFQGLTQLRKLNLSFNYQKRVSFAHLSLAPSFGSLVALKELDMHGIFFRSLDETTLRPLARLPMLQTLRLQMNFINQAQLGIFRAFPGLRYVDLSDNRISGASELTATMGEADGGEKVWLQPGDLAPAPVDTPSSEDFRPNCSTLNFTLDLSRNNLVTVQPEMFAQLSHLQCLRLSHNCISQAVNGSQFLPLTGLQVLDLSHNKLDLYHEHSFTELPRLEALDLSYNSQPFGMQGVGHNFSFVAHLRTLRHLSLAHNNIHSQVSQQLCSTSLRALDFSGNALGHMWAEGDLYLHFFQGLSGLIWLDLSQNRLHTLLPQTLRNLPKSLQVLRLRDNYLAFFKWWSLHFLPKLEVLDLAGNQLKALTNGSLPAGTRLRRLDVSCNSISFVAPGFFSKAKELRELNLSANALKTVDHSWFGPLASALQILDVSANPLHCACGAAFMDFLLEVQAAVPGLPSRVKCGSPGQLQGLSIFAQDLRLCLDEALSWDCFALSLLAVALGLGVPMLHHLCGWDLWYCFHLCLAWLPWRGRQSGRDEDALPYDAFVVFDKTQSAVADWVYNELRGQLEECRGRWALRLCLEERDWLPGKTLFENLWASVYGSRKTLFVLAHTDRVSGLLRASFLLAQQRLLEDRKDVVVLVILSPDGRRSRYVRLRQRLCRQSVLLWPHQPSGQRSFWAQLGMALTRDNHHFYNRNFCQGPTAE
How it was run: as §1

[1] = HEK-Blue cells overexpressing human TLR9, stimulated with ODN2006 5 nM, read-out: TLR 9 IC50
[2] = HEK-Blue human TLR9 reporter cells

Compound	IC50 (human TLR7) [µM]	IC50 (human TLR8) [µM]	IC50 (human TLR9) [µM]	IC50 (human TLR9; [1]) [µM]	IC50 (human TLR9; [2]) [µM]
Cn1c(-c2ccc(S(C)(=O)=O)cc2)nc2ccc(C3CCN(C4CC5CCC(C4)N5C4CCOCC4)CC3)c(F)c21 (centres unmarked) [Example 275, 7-fluoro-1-methyl-2-(4-(methylsulfonyl)phenyl)-6-(1-(8-(tetrahydro-2H-pyran-4-yl)-8-azabicyclo[3.2.1]octan-3-yl)piperidin-4-yl)-1H-benzo[d]imidazole]	> 50	> 50	0.089	0.089	–
CC(C)CN1CCC(N2CCC(c3cc(F)c4nc(-c5ccc(S(C)(=O)=O)cc5)n(C)c4c3)CC2)CC1 [Example 278, 4-fluoro-6-(1′-isobutyl-[1,4′-bipiperidin]-4-yl)-1-methyl-2-(4-(methylsulfonyl)phenyl)-1H-benzo[d]imidazole]	9	> 50	0.058	0.058	–
Cn1c(-c2ccc(S(C)(=O)=O)cc2)nc2c(F)cc(C3CCN(C4CCN(C5COC5)CC4)CC3)cc21 [Example 279, 4-fluoro-1-methyl-2-(4-(methylsulfonyl)phenyl)-6-(1′-(oxetan-3-yl)-[1,4′-bipiperidin]-4-yl)-1H-benzo[d]imidazole]	19.5	> 50	1.2	1.22	–
Cn1c(-c2ccc(S(C)(=O)=O)cc2)nc2c(F)cc(C3CCN(C4CCN(C5CCOCC5)CC4)CC3)cc21 [Example 280, 4-fluoro-1-methyl-2-(4-(methylsulfonyl)phenyl)-6-(1′-(tetrahydro-2H-pyran-4-yl)-[1,4′-bipiperidin]-4-yl)-1H-benzo[d]imidazole]	0.7	> 50	0.073	0.073	–
COCCN1CCC(N2CCC(c3cc(F)c4nc(-c5ccc(S(C)(=O)=O)cc5)n(C)c4c3)CC2)CC1 [Example 281, 4-fluoro-6-(1′-(2-methoxyethyl)-[1,4′-bipiperidin]-4-yl)-1-methyl-2-(4-(methylsulfonyl)phenyl)-1H-benzo[d]imidazole]	7	> 50	0.12	0.124	–
CC(C)CN1C2CCC1CC(N1CCC(c3cc(F)c4nc(-c5ccc(S(C)(=O)=O)cc5)n(C)c4c3)CC1)C2 (centres unmarked) [Example 284, 4-fluoro-6-(1-(8-isobutyl-8-azabicyclo[3.2.1]octan-3-yl)piperidin-4-yl)-1-methyl-2-(4-(methylsulfonyl)phenyl)-1H-benzo[d]imidazole]	5.3	> 50	–	0.118	0.12
CC(C)CN1C2CCC1CC(N1CCC(c3cc(F)c4nc(-c5ccc(S(C)(=O)=O)cc5)n(C)c4c3)CC1)C2 (centres unmarked) [Example 285, 4-fluoro-6-(1-(8-isobutyl-8-azabicyclo[3.2.1]octan-3-yl)piperidin-4-yl)-1-methyl-2-(4-(methylsulfonyl)phenyl)-1H-benzo[d]imidazole]	4.8	> 50	–	0.248	0.25
Cn1c(-c2ccc(S(C)(=O)=O)cc2)nc2c(F)cc(C3CCN(C4CC5CCC(C4)N5C4COC4)CC3)cc21 (centres unmarked) [Example 286, 4-fluoro-1-methyl-2-(4-(methylsulfonyl)phenyl)-6-(1-(8-(oxetan-3-yl)-8-azabicyclo[3.2.1]octan-3-yl)piperidin-4-yl)-1H-benzo[d]imidazole]	29	> 50	–	0.041	0.041
CC(C)CN1CCCC(N2CCC(c3cc(F)c4nc(-c5ccc(S(C)(=O)=O)cc5)n(C)c4c3)CC2)CC1 (centres unmarked) [Example 296, 4-fluoro-6-(1-(1-isobutylazepan-4-yl)piperidin-4-yl)-1-methyl-2-(4-(methylsulfonyl)phenyl)-1H-benzo[d]imidazole]	14.1	> 50	–	0.022	0.022
CC(C)CN1CCCC(N2CCC(c3cc(F)c4nc(-c5ccc(S(C)(=O)=O)cc5)n(C)c4c3)CC2)CC1 (centres unmarked) [Example 297, 4-fluoro-6-(1-(1-isobutylazepan-4-yl)piperidin-4-yl)-1-methyl-2-(4-(methylsulfonyl)phenyl)-1H-benzo[d]imidazole]	12.5	> 50	–	0.023	0.023
Cn1c(-c2ccc(S(C)(=O)=O)cc2)nc2c(F)cc(C3CCN(C4CCCN(C5CCOCC5)CC4)CC3)cc21 (centres unmarked) [Example 300, 4-fluoro-1-methyl-2-(4-(methylsulfonyl)phenyl)-6-(1-(1-(tetrahydro-2H-pyran-4-yl)azepan-4-yl)piperidin-4-yl)-1H-benzo[d]imidazole]	2.9	> 50	–	0.02	0.02
